Data taken from patent US20150133426A1, “SUBSTITUTED PYRROLOPYRIMIDINES” (BAYER PHARMA AKTIENGESELLSCHAFT, priority 2012, published 2015).

These compounds were tested against T1, human full-length MKNK1 (Homo sapiens, UniProt Q9BUB5, T385D) (assay: MKNK1 kinase high ATP assay (TR-FRET)). Conditions: high ATP (2 mM), 15 min preincubation with enzyme, GST-MKNK1 (T344D).
T1 construct: purchased Carna Biosciences 02-145; host or cells: insect cells, baculovirus expression system
T1 sequence (Q9BUB5 1-424 isoform Q9BUB5-2 T344D): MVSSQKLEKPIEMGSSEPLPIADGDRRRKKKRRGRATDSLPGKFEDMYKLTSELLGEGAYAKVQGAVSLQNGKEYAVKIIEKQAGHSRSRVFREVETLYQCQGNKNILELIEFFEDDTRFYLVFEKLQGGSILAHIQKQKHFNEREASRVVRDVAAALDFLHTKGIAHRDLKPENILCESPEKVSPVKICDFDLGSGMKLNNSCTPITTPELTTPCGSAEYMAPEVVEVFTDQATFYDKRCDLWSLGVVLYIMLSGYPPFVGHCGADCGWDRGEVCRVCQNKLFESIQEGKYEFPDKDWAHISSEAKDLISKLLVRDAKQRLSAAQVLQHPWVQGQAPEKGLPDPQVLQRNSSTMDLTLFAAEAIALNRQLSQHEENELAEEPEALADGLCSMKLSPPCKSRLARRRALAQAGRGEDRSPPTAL
Assay type: biochemical
How it was run: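 GST-tagged full-length human MKNK1 (aa 1-424, T344D), baculovirus-expressed, preincubated 15 min with compound, then reacted 30 min at 22 °C with 2 mM ATP and 0.06 µM biotinylated peptide (final).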
In the case of `COc1cc2nc(C)sc2cc1Nc1ncnc2[nH]c3c(c12)CC(C(=O)NCCCS(C)(=O)=O)CC3` (racemic) [Example 68, (RS)-4-[(5-Methoxy-2-methyl-1,3-benzothiazol-6-yl)amino]-N-[3-(methylsulfonyl)propyl]-6,7,8,9-tetrahydro-5H-pyrimido[4,5-b]indole-6-carboxamide], the IC50 is reported as 6.16 µM. For `CS(=O)(=O)CCCNC(=O)C1CCc2[nH]c3ncnc(Nc4ccccc4OCC(F)F)c3c2C1` (racemic) [Example 152, (RS)-4-{[2-(2,2-Difluoroethoxy)phenyl]amino}-N-[3-(methylsulfonyl)propyl]-6,7,8,9-tetrahydro-5H-pyrimido[4,5-b]indole-6-carboxamide], the IC50 was 0.113 µM. Compound `Cc1cc(=O)oc2cc(Nc3ncnc4[nH]c5c(c34)CC(C(=O)NCCCS(C)(=O)=O)CC5)ccc12` (racemic) [Example 33, (RS)-4-[(4-Methyl-2-oxo-2H-chromen-7-yl)amino]-N-[3-(methylsulfonyl)propyl]-6,7,8,9-tetrahydro-5H-pyrimido[4,5-b]indole-6-carboxamide] has an IC50 of 0.394 µM. Compound `CS(=O)(=O)CCCNC(=O)C1CCc2[nH]c3ncnc(Nc4cc(OC(F)(F)F)ccc4F)c3c2C1` (racemic) [Example 62, (RS)-4-{[2-Fluoro-5-(trifluoromethoxy)phenyl]amino}-N-[3-(methylsulfonyl)propyl]-6,7,8,9-tetrahydro-5H-pyrimido[4,5-b]indole-6-carboxamide] has an IC50 of 0.677 µM. With `COc1ccc(F)cc1Nc1ncnc2[nH]c3c(c12)CC(C(=O)NCc1ccccc1)CC3` (racemic) [Example 200, (RS)—N-Benzyl-4-[(5-fluoro-2-methoxyphenyl)amino]-6,7,8,9-tetrahydro-5H-pyrimido[4,5-b]indole-6-carboxamide] the IC50 was 0.1 µM. `CCOC(=O)C1CCc2[nH]c3ncnc(Nc4ccccc4OC4CCCC4)c3c2C1` (racemic) [Example 170, (RS)-Ethyl 4-{[2-(cyclopentyloxy)phenyl]amino}-6,7,8,9-tetrahydro-5H-pyrimido[4,5-b]indole-6-carboxylate] was tested, and the IC50 was 1.9 µM. Compound `CS(=O)(=O)CCCNC(=O)C1CCc2[nH]c3ncnc(Nc4cc5cn[nH]c5cc4F)c3c2C1` (racemic) [Example 61, (RS)-4-[(6-Fluoro-1H-indazol-5-yl)amino]-N-[3-(methylsulfonyl)propyl]-6,7,8,9-tetrahydro-5H-pyrimido[4,5-b]indole-6-carboxamide] has an IC50 of 0.017 µM. With `O=C(O)CNC(=O)C1CCc2[nH]c3ncnc(Nc4ccc(F)cc4OCCO)c3c2C1` (racemic) [Example 187, (RS)—N-[(4-{[4-Fluoro-2-(2-hydroxyethoxy)phenyl]amino}-6,7,8,9-tetrahydro-5H-pyrimido[4,5-b]indol-6-yl)carbonyl]glycine] the IC50 was 0.123 µM. `CC1(C)Cc2cccc(Nc3ncnc4[nH]c5c(c34)CC(C(=O)NCCCS(C)(=O)=O)CC5)c2O1` (racemic) [Example 80, (RS)-4-[(2,2-Dimethyl-2,3-dihydro-1-benzofuran-7-yl)amino]-N-[3-(methylsulfonyl)propyl]-6,7,8,9-tetrahydro-5H-pyrimido[4,5-b]indole-6-carboxamide] gave an IC50 of 0.494 µM. In the case of `COc1ccc(F)cc1Nc1ncnc2[nH]c3c(c12)CCCC3` [Example 108], the IC50 is reported as 0.126 µM. In the case of `CS(=O)(=O)CCCNC(=O)C1CCc2[nH]c3ncnc(Nc4ccc5c(c4)OCC(=O)N5)c3c2C1` (racemic) [Example 51, (RS)—N-[3-(Methylsulfonyl)propyl]-4-[(3-oxo-3,4-dihydro-2H-1,4-benzoxazin-7-yl)amino]-6,7,8,9-tetrahydro-5H-pyrimido[4,5-b]indole-6-carboxamide], the IC50 is reported as 0.37 µM. With `CC(C)Oc1cc(F)ccc1Nc1ncnc2[nH]c3c(c12)CC(F)(F)CC3` [Example 9, 6,6-Difluoro-N-(4-fluoro-2-isopropoxyphenyl)-6,7,8,9-tetrahydro-5H-pyrimido[4,5-b]indol-4-amine] the IC50 was 0.085 µM. `CS(=O)(=O)CCCNC(=O)C1CCc2[nH]c3ncnc(Nc4ccccc4OCC4CC4)c3c2C1` (racemic) [Example 151, (RS)-4-{[2-(Cyclopropylmethoxy)phenyl]amino}-N-[3-(methylsulfonyl)propyl]-6,7,8,9-tetrahydro-5H-pyrimido[4,5-b]indole-6-carboxamide] was tested, and the IC50 was 0.19 µM. Work on `O=c1[nH]c2ccc(Nc3ncnc4[nH]c5c(c34)CC(F)(F)CC5)cc2s1` [Example 142] yielded an IC50 of 0.038 µM. `CS(=O)(=O)CCCNC(=O)C1CCc2[nH]c3ncnc(Nc4ccc(C(=O)N5CCCC5)cc4)c3c2C1` (racemic) [Example 38, (RS)—N-[3-(Methylsulfonyl)propyl]-4-{[4-(pyrrolidin-1-ylcarbonyl)phenyl]amino}-6,7,8,9-tetrahydro-5H-pyrimido[4,5-b]indole-6-carboxamide] gave an IC50 of 10.6 µM. Compound `CCNC(=O)C1CCc2[nH]c3ncnc(Nc4ccccc4N4CCOCC4)c3c2C1` (racemic) [Example 201, (RS)—N-Ethyl-4-{[2-(morpholin-4-yl)phenyl]amino}-6,7,8,9-tetrahydro-5H-pyrimido[4,5-b]indole-6-carboxamide] has an IC50 of 0.215 µM. In the case of `CC(C)Oc1cc(F)ccc1Nc1ncnc2[nH]c3c(c12)CS(=O)(=O)CC3` [Example 84, N-(4-Fluoro-2-isopropoxyphenyl)-5,7,8,9-tetrahydrothiopyrano[3′,4′:4,5]pyrrolo[2,3-d]pyrimidin-4-amine 6,6-dioxide], the IC50 is reported as 0.082 µM. `COc1cc2[nH]ncc2cc1Nc1ncnc2[nH]c3c(c12)CC(C(=O)NCc1cccc(C(F)(F)F)c1)CC3` (racemic) [Example 220, (RS)-4-[(6-Methoxy-1H-indazol-5-yl)amino]-N-[3-(trifluoromethyl)benzyl]-6,7,8,9-tetrahydro-5H-pyrimido[4,5-b]indole-6-carboxamide] showed an IC50 of 0.003 µM. For `CC(C)Oc1ccc(Cl)cc1Nc1ncnc2[nH]c3c(c12)CCCC3` [Example 124], the IC50 was 1.74 µM. Compound `COCC1(OC)CCc2[nH]c3ncnc(Nc4cc5[nH]c(=O)[nH]c5cc4Cl)c3c2C1` (racemic) [Example 131] has an IC50 of 5.7 µM. `CS(=O)(=O)CCCNC(=O)C1CCc2[nH]c3ncnc(Sc4ccc5[nH]ncc5c4)c3c2C1` (racemic) [Example 146, (RS)-4-(1H-Indazol-5-ylsulfanyl)-N-[3-(methylsulfonyl)propyl]-6,7,8,9-tetrahydro-5H-pyrimido[4,5-b]indole-6-carboxamide] was tested, and the IC50 was 1.13 µM. `O=C(NCc1ccccc1)C1CCc2[nH]c3ncnc(Nc4ccccc4N4CCOCC4)c3c2C1` (racemic) [Example 206, (RS)—N-Benzyl-4-{[2-(morpholin-4-yl)phenyl]amino}-6,7,8,9-tetrahydro-5H-pyrimido[4,5-b]indole-6-carboxamide] gave an IC50 of 0.077 µM. `COc1ccc(Cl)cc1Nc1ncnc2[nH]c3c(c12)CCCC3` [Example 125] was tested, and the IC50 was 0.104 µM. With `CS(=O)(=O)CCCNC(=O)C1CCc2[nH]c3ncnc(Nc4cccc(F)c4F)c3c2C1` (racemic) [Example 77, (RS)-4-[(2,3-Difluorophenyl)amino]-N-[3-(methylsulfonyl)propyl]-6,7,8,9-tetrahydro-5H-pyrimido[4,5-b]indole-6-carboxamide] the IC50 was 3.63 µM. With `Cc1ccc(Nc2ncnc3[nH]c4c(c23)CC(C(=O)NCCCS(C)(=O)=O)CC4)c(O)c1` (racemic) [Example 54, (RS)-4-[(2-Hydroxy-4-methylphenyl)amino]-N-[3-(methylsulfonyl)propyl]-6,7,8,9-tetrahydro-5H-pyrimido[4,5-b]indole-6-carboxamide] the IC50 was 3.08 µM. With `COc1ccc(Cl)cc1Nc1ncnc2[nH]c3c(c12)CC(C(=O)NC(C)C)CC3` (racemic) [Example 224, (RS)-4-[(5-Chloro-2-methoxyphenyl)amino]-N-(propan-2-yl)-6,7,8,9-tetrahydro-5H-pyrimido[4,5-b]indole-6-carboxamide] the IC50 was 0.04 µM. `COc1cccc(C)c1Nc1ncnc2[nH]c3c(c12)CC(C(=O)NCCCS(C)(=O)=O)CC3` (racemic) [Example 75, (RS)-4-[(2-Methoxy-6-methylphenyl)amino]-N-[3-(methylsulfonyl)propyl]-6,7,8,9-tetrahydro-5H-pyrimido[4,5-b]indole-6-carboxamide] was tested, and the IC50 was 7.67 µM. `CCOC(=O)C1CCc2[nH]c3ncnc(Nc4cc(Cl)ccc4OC(C)C)c3c2C1` (racemic) [Example 177, (RS)-Ethyl 4-{[5-chloro-2-(propan-2-yloxy)phenyl]amino}-6,7,8,9-tetrahydro-5H-pyrimido[4,5-b]indole-6-carboxylate] was tested, and the IC50 was 17 µM. For `O=[N+]([O-])c1ccc2c(c1)N(c1ncnc3[nH]c4c(c13)CCCC4)CC2` [Example 121], the IC50 was at least 20 µM. Work on `O=C1OCCOc2cc(F)ccc2Nc2ncnc3[nH]c4c(c23)CC1CC4` (racemic) [Example 229, (RS)-11-Fluoro-1,3,4,7,8,14-hexahydro-5H-2,4-ethano-6,9-dioxa-1,14,15,17-tetraazabenzo[5,6]cyclotrideca[1,2,3-cd]inden-5-one] yielded an IC50 of 3.54 µM. `CC(C)Oc1cc(F)ccc1Nc1ncnc2[nH]c3c(c12)C[S+]([O-])CC3` (racemic) [Example 86, (RS)—N-(4-Fluoro-2-isopropoxyphenyl)-5,7,8,9-tetrahydrothiopyrano[3′,4′:4,5]pyrrolo[2,3-d]pyrimidin-4-amine 6-oxide] was tested, and the IC50 was 0.22 µM.
